Laboratory results taken from patent publication US10098904B2, “Zidovudine combination therapies for treating microbial infections” (HELPERBY THERAPEUTICS LIMITED, priority 2014, dated 2018).

Assays:
[1] = tested on: NDM-1 BAA2470 K. pneumoniae; type: in vivo; details: mice, intravenous; rifampicin 10 mg/kg, colistin 20 mg/kg, HT0120663 5 mg/kg; singly
enterobacteria = details: on some enterobacteria; cited from earlier work
NDM-1 BAA2469 E. coli = type: in vivo; details: mice, intravenous; rifampicin 10 mg/kg, colistin 20 mg/kg, HT0120663 5 mg/kg; singly

Compound | in vivo activity of drug alone [1] | antibacterial effect (enterobacteria) | in vivo activity of drug alone (NDM-1 BAA2469 E. coli)
Cc1cn([C@H]2C[C@H](N=[N+]=[N-])[C@@H](CO)O2)c(=O)[nH]c1=O [HT0120663, Zidovudine] | no in vivo activity | bactericidal effect | no in vivo activity
Colistin | no in vivo activity | – | no in vivo activity
